target: 5-hydroxytryptamine receptor 7 (Homo sapiens, UniProt P34969); assay: Displacement of [3H]-5-CT from human 5-HT7b receptor expressed in HEK293 cell membranes incubated for 1 hr by Microbeta Topcount instrument based analysis
Sequence (P34969 whole entry): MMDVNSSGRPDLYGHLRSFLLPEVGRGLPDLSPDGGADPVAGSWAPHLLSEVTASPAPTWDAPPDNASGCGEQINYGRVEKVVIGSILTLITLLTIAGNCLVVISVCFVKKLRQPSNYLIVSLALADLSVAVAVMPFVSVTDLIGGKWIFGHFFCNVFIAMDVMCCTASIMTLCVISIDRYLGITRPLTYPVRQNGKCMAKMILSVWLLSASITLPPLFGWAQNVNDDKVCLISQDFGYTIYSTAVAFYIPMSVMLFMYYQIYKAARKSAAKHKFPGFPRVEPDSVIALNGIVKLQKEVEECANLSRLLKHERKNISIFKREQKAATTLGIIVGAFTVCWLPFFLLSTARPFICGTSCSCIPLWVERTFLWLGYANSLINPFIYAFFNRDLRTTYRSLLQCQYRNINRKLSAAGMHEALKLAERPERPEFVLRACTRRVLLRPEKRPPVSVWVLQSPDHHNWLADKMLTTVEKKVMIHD

| Ki | Compound |
| --- | --- |
| 285 nM | OC(COc1ccc2c(c1)CCC2)CN1CCN(c2cccc(Cl)c2)CC1 (stereo not drawn) |
| 587 nM | OC(COc1ccc2c(c1)CCC2)CN1CCN(c2ccccc2)CC1 (stereo not drawn) |
| 1520 nM | OC(COc1ccc2c(c1)CCC2)CN1CCN(c2ccc(Cl)cc2)CC1 (stereo not drawn) |
| 471 nM | CC(=O)c1ccc(OCC(O)CN2CCN(c3cccc(Cl)c3)CC2)cc1 (stereo not drawn) |

Further lines, the compound ahead of its results:

| Compound | Ki |
| --- | --- |
| CCCc1ccc(OCC(O)CN2CCN(c3ccccc3)CC2)cc1 (stereo not drawn) | 1090 nM |
| CCC(=O)N1c2ccccc2CC1C(=O)NCCCN1CCN(c2ccccc2)CC1 (stereo not drawn) | 7130 nM |
| CCC(=O)N1c2ccccc2CC1C(=O)NCCCN1CCN(c2cccc(Cl)c2)CC1 (stereo not drawn) | 687 nM |
| CC(=O)c1ccc(OCC(O)CN2CCN(c3ccc(Cl)cc3)CC2)cc1 (stereo not drawn) | 7130 nM |
| CC(=O)c1ccc(OCC(O)CN2CCN(c3ccccc3Cl)CC2)cc1 (stereo not drawn) | 4670 nM |
| CCCc1ccc(OCC(O)CN2CCN(c3cccc(Cl)c3)CC2)cc1 (stereo not drawn) | 360 nM |
| COc1ccc(OC)c(COCC(O)CN2CCN(c3ccccc3)CC2)c1 (stereo not drawn) | 2300 nM |
| COc1ccc(OC)c(COCC(O)CN2CCN(c3cccc(Cl)c3)CC2)c1 (stereo not drawn) | 65 nM |
| CC(=O)c1ccc(OCC(O)CN2CCN(c3ccccc3)CC2)cc1 (stereo not drawn) | 1970 nM |

— ChEMBL document CHEMBL5576121, “Halogen Bonding Hot Spots as a Constraint in Virtual Screening: A Case Study of 5-HT7R” (J Med Chem, 2024)
